Test results from publication PMC10620772, “Design, synthesis, and biological evaluation of new pyrimidine-5-carbonitrile derivatives as novel anti-cancer, dual EGFR^WT/COX-2 inhibitors with docking studies” (RSC Advances, 2023).

How the values were obtained:
Format in all cases: cell-based, human
HOP-62 = test: NCI60 antitumor screening; conditions: 10 μM one-dose
HCT-116 = test: NCI60 antitumor screening; conditions: 10 μM one-dose
RPMI-8226 = test: NCI60 antitumor screening; conditions: 10 μM one-dose
MDA-MB-468 = test: NCI60 antitumor screening; conditions: 10 μM one-dose
SR = test: NCI60 antitumor screening; conditions: 10 μM one-dose, Table 1
NCI60 cell lines panel = test: NCI60 antitumor screening, full panel; conditions: 10 μM one-dose, mean over NCI60
Procedure: The National Cancer Institute (NCI), Bethesda, Maryland, United States, selected all of the novel synthesized compounds (2b–d, 3a–d and 4a–p) for in vitro antitumor screening at a single concentration of 10 μM toward the NCI60 cell lines panel covering leukaemia, non-small cell lungs, colon, central nervous system (CNS), melanoma, ovarian, renal, prostate, and breast cancer cells.[32–35] The data were reported as a mean graph of the percent growth of the treated cell lines and expressed as percentage growth inhibition (GI%) in Table 1 and ESI 1.
(2) The molar concentration of the compound responsible for total growth inhibition, also known as total growth inhibition (TGI).
Regarding subpanel selectivity toward certain cancer type, the method of determining a compound's selectivity index is to divide the full panel MG-MID (μM) value by each single subpanel. Values above six indicate high selectivity against the subpanel; moderate selectivity is denoted by values between three and six. Conversely, compounds are termed nonselective if their selectivity is less than three.[30,37]

SK-OV-3 = test: NCI60 antitumor screening; conditions: 10 μM one-dose
SK-MEL-2 = test: NCI60 antitumor screening; conditions: 10 μM one-dose
KM12 = test: NCI60 antitumor screening; conditions: 10 μM one-dose
MDA-MB-435 = test: NCI60 antitumor screening; conditions: 10 μM one-dose
OVCAR-8 = test: NCI60 antitumor screening; conditions: 10 μM one-dose
LOX IMVI = test: NCI60 antitumor screening; conditions: 10 μM one-dose
NCI/ADR-RES = test: NCI60 antitumor screening; conditions: 10 μM one-dose
SW-620 = test: NCI60 antitumor screening; conditions: 10 μM one-dose
SF-268 = test: NCI60 antitumor screening; conditions: 10 μM one-dose
MDA-MB-231/ATCC = test: NCI60 antitumor screening; conditions: 10 μM one-dose
NCI-H226 = test: NCI60 antitumor screening; conditions: 10 μM one-dose
PC-3 = test: NCI60 antitumor screening; conditions: 10 μM one-dose
UO-31 = test: NCI60 antitumor screening; conditions: 10 μM one-dose
SNB-19 = test: NCI60 antitumor screening; conditions: 10 μM one-dose
UACC-257 = test: NCI60 antitumor screening; conditions: 10 μM one-dose
SNB-75 = test: NCI60 antitumor screening; conditions: 10 μM one-dose
CAKI-1 = test: NCI60 antitumor screening; conditions: 10 μM one-dose
EKVX = test: NCI60 antitumor screening; conditions: 10 μM one-dose
IGROV1 = test: NCI60 antitumor screening; conditions: 10 μM one-dose
SF-295 = test: NCI60 antitumor screening; conditions: 10 μM one-dose
HCC-2998 = test: NCI60 antitumor screening; conditions: 10 μM one-dose
SF-539 = test: NCI60 antitumor screening; conditions: 10 μM one-dose
UACC-62 = test: NCI60 antitumor screening; conditions: 10 μM one-dose
HS 578T = test: NCI60 antitumor screening; conditions: 10 μM one-dose
HL-60(TB) = test: NCI60 antitumor screening; conditions: 10 μM one-dose
A498 = test: NCI60 antitumor screening; conditions: 10 μM one-dose
HOP-92 = test: NCI60 antitumor screening; conditions: 10 μM one-dose
A549/ATCC = test: NCI60 antitumor screening; conditions: 10 μM one-dose
SK-MEL-28 = test: NCI60 antitumor screening; conditions: 10 μM one-dose
BT-549 = test: NCI60 antitumor screening; conditions: 10 μM one-dose
NCI-H522 = test: NCI60 antitumor screening; conditions: 10 μM one-dose
U251 = test: NCI60 antitumor screening; conditions: 10 μM one-dose
OVCAR-3 = test: NCI60 antitumor screening; conditions: 10 μM one-dose
MALME-3M = test: NCI60 antitumor screening; conditions: 10 μM one-dose
NCI-H23 = test: NCI60 antitumor screening; conditions: 10 μM one-dose
DU-145 = test: NCI60 antitumor screening; conditions: 10 μM one-dose
RXF 393 = test: NCI60 antitumor screening; conditions: 10 μM one-dose
K-562 = test: NCI60 antitumor screening; conditions: 10 μM one-dose
HT29 = test: NCI60 antitumor screening; conditions: 10 μM one-dose
OVCAR-4 = test: NCI60 antitumor screening; conditions: 10 μM one-dose, Table 1
SK-MEL-5 = test: NCI60 antitumor screening; conditions: 10 μM one-dose
CCRF-CEM = test: NCI60 antitumor screening; conditions: 10 μM one-dose
NCI-H460 = test: NCI60 antitumor screening; conditions: 10 μM one-dose
SN12C = test: NCI60 antitumor screening; conditions: 10 μM one-dose
TK-10 = test: NCI60 antitumor screening; conditions: 10 μM one-dose
MOLT-4 = test: NCI60 antitumor screening; conditions: 10 μM one-dose
ACHN = test: NCI60 antitumor screening; conditions: 10 μM one-dose
M14 = test: NCI60 antitumor screening; conditions: 10 μM one-dose
MCF7 = test: NCI60 antitumor screening; conditions: 10 μM one-dose
786–0 = test: NCI60 antitumor screening; conditions: 10 μM one-dose, Table 1
COLO 205 = test: NCI60 antitumor screening; conditions: 10 μM one-dose
T-47D = test: NCI60 antitumor screening; conditions: 10 μM one-dose
OVCAR-5 = test: NCI60 antitumor screening; conditions: 10 μM one-dose
HCT-15 = test: NCI60 antitumor screening; conditions: 10 μM one-dose

N#Cc1c(-c2ccc(F)cc2)nc(SCc2ccc(F)cc2)[nH]c1=O [2b, 2-((4-Fluorobenzyl)thio)-4-(4-fluorophenyl)-6-oxo-1,6-dihydropyrimidine-5-carbonitrile]
GI% (HOP-62): 16.84%
GI% (HOP-62; Table 1): — (GI value > 70%)
GI% (HCT-116): 33.39%
GI% (RPMI-8226): — (GI% < 10)
GI% (MDA-MB-468): 14.26%
GI% (SR): — (GI value > 70%)
Mean GI% (NCI60 cell lines panel): 16.01%
GI% (SK-OV-3): 26.25%
GI% (SK-MEL-2): — (GI% < 10)
GI% (KM12): — (GI% < 10)
GI% (MDA-MB-435): — (GI% < 10)
GI% (OVCAR-8): 48.04%
GI% (LOX IMVI): 10.55%
GI% (NCI/ADR-RES): 37.17%
GI% (SW-620): — (GI% < 10)
GI% (SF-268): 24.67%
GI% (MDA-MB-231/ATCC): 39.26%
GI% (NCI-H226): 24.21%
GI% (NCI-H226; Table 1): — (GI value > 70%)
GI% (PC-3): — (GI% < 10)
GI% (UO-31): 26.71%
GI% (SNB-19): 18.35%
GI% (UACC-257): — (GI% < 10)
GI% (SNB-75): 23.60%
GI% (SNB-75; Table 1): — (GI value > 70%)
GI% (CAKI-1): 24.10%
GI% (EKVX): — (GI% < 10)
GI% (IGROV1): — (GI% < 10)
GI% (SF-295): 25.73%
GI% (HCC-2998): — (GI% < 10)
GI% (SF-539): 45.33%
GI% (SF-539; Table 1): — (GI value > 70%)
GI% (UACC-62): 11.33%
GI% (HS 578T): 24.34%
GI% (HS 578T; Table 1): — (GI value > 70%)
GI% (HL-60(TB)): 20.88%
GI% (A498): — (GI% < 10)
GI% (HOP-92): 19.25%
GI% (A549/ATCC): 15.77%
GI% (SK-MEL-28): — (GI% < 10)
GI% (BT-549): — (GI% < 10)
GI% (NCI-H522): 25.94%
GI% (U251): 33.40%
GI% (OVCAR-3): — (GI% < 10)
GI% (MALME-3M): — (GI% < 10)
GI% (NCI-H23): 12.73%
GI% (DU-145): — (GI% < 10)
GI% (RXF 393): 28.91%
GI% (RXF 393; Table 1): — (GI value > 70%)
GI% (K-562): — (GI% < 10)
GI% (K-562; Table 1): — ^b (GI value > 70%)
GI% (HT29): — (GI% < 10)
GI% (OVCAR-4): 73.14%
GI% (SK-MEL-5): — (GI% < 10)
GI% (CCRF-CEM): — (GI% < 10)
GI% (NCI-H460): 13.27%
GI% (SN12C): 17.08%
GI% (TK-10): 17.90%
GI% (MOLT-4): — (GI% < 10)
GI% (ACHN): 26.83%
GI% (M14): — (GI% < 10)
GI% (MCF7): — (GI% < 10)
GI% (786–0): 84.82%
GI% (COLO 205): — (GI% < 10)
GI% (T-47D): 25.99%
GI% (OVCAR-5): — (GI% < 10)
GI% (HCT-15): — (GI% < 10)
